Measurements published in US20260166128A1, “HUMAN AMYLIN ANALOG, AND DERIVATIVE THEREOF AND USE THEREOF” (priority 2022, published 2026).
Numbered stars: 1 amine (or outer) side, 2 acyl side, 3 side chain; on linkers, the order of the positions; unused ones are H or OH. Bridge positions count the residues as written; N and C are the ends. Square brackets hold non-standard residues; d marks the D form. Side chains are listed from the residue outwards. Peptide text beside a SMILES is read from it. * marks the point of attachment. C20 diacid = O=C(O)CCCCCCCCCCCCCCCCCCC(=O)*; C18 diacid = O=C(O)CCCCCCCCCCCCCCCCC(=O)*; γGlu = O=C(O)[C@H](CCC(=O)[*:2])N[*:1]; Hyp = O=C(O)[C@@H]1C[C@@H](O)CN1; AEEA = NCCOCCOCC(=O)O

These molecules were tested against T1, human amylin receptor (Homo sapiens, UniProt O60896+P30988) (assay: Luciferase assay of amylin derivatives in amylin receptor/CRE-luc CHO cell line). Details: CHO-K1/Ga15/AMY3 CRE-luc cells, 24 hours incubation, F12 medium containing 10% FBS; read-out: EC50.
T1 construct: host or cells: CHO-K1/Ga15/AMY3 cells, further stably transfected with a CRE-luciferase plasmid
T1 sequence (P30988 25-474): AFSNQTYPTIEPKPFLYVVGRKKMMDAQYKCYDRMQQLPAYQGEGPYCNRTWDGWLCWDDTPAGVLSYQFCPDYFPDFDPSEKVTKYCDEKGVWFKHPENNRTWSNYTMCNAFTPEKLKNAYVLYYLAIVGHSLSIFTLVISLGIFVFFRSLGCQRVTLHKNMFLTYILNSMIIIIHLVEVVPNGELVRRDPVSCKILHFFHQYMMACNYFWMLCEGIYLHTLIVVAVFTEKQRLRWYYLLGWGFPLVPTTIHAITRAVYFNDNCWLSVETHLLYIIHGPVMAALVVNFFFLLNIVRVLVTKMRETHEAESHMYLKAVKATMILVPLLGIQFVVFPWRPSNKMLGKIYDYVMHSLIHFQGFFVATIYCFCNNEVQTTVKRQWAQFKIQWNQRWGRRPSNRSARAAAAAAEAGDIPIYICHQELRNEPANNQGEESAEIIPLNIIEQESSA
T1 sequence (O60896 24-148 partner): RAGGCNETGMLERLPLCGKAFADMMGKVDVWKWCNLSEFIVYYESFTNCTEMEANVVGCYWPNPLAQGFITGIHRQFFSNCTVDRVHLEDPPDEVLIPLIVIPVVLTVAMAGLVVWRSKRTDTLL
Assay type: cell-based
Procedure: The experiment was intended to detect the activity or efficacy of the amylin derivatives on a human amylin receptor in vitro by luciferase assay.
50 μL of growth medium (F12 medium containing 10% FBS) was added into each well of a white 96-well plate, and the stably transfected amylin/CRE-lue CHO cells were inoculated into the white 96-well plate at a density of about 20,000 cells/well for activity determination.

EC50 [nM]	SMILES
0.077	CC[C@H](C)[C@H](NC(=O)[C@@H]1CCCN1C(=O)CNC(=O)[C@H](CC(C)C)NC(=O)[C@H](CC(N)=O)NC(=O)[C@H](CC(N)=O)NC(=O)[C@H](CO)NC(=O)[C@H](CCCCNC(=O)CC[C@H](NC(=O)CCCCCCCCCCCCCCCCCCC(=O)O)C(=O)O)NC(=O)[C@H](Cc1c[nH]cn1)NC(=O)[C@H](CCCNC(=N)N)NC(=O)[C@H](CC(C)C)NC(=O)[C@H](Cc1ccccc1)NC(=O)[C@H](CC(=O)O)NC(=O)[C@H](C)NC(=O)[C@H](CC(C)C)NC(=O)[C@H](CCCNC(=N)N)NC(=O)[C@H](CCC(N)=O)NC(=O)[C@@H](NC(=O)[C@H](C)NC(=O)[C@@H]1CSSC[C@H](NC(=O)[C@@H](N)CCCNC(=N)N)C(=O)N[C@@H](CC(N)=O)C(=O)N[C@@H]([C@@H](C)O)C(=O)N[C@@H](C)C(=O)N[C@@H]([C@@H](C)O)C(=O)N1)[C@@H](C)O)C(=O)N[C@@H](CC(C)C)C(=O)N1CCC[C@H]1C(=O)N1CCC[C@H]1C(=O)N[C@H](C(=O)N[C@@H](CC(N)=O)C(=O)N[C@H](C(=O)NCC(=O)N[C@@H](CO)C(=O)N[C@@H](CC(N)=O)C(=O)N[C@H](C(=O)N1C[C@H](O)C[C@H]1C(N)=O)[C@@H](C)O)C(C)C)[C@@H](C)O [PD098] (H-RCNTATCATQRLADFLRHK([γGlu-C20 diacid])SNNLGPILPPTNVGSNT[Hyp]-NH2; disulfide 2-7)
0.06	CC[C@H](C)[C@H](NC(=O)[C@@H]1CCCN1C(=O)CNC(=O)[C@H](CC(C)C)NC(=O)[C@H](CC(N)=O)NC(=O)[C@H](CC(N)=O)NC(=O)[C@H](CO)NC(=O)[C@H](CCCCNC(=O)CC[C@H](NC(=O)CCCCCCCCCCCCCCCCC(=O)O)C(=O)O)NC(=O)[C@H](Cc1c[nH]cn1)NC(=O)[C@H](CCCNC(=N)N)NC(=O)[C@H](CC(C)C)NC(=O)[C@H](Cc1ccccc1)NC(=O)[C@H](CC(=O)O)NC(=O)[C@H](C)NC(=O)[C@H](CC(C)C)NC(=O)[C@H](CCCNC(=N)N)NC(=O)[C@H](CCC(N)=O)NC(=O)[C@@H](NC(=O)[C@H](C)NC(=O)[C@@H]1CSSC[C@H](NC(=O)[C@@H](N)CCCNC(=N)N)C(=O)N[C@@H](CC(N)=O)C(=O)N[C@@H]([C@@H](C)O)C(=O)N[C@@H](C)C(=O)N[C@@H]([C@@H](C)O)C(=O)N1)[C@@H](C)O)C(=O)N[C@@H](CC(C)C)C(=O)N1CCC[C@H]1C(=O)N1CCC[C@H]1C(=O)N[C@H](C(=O)N[C@@H](CC(N)=O)C(=O)N[C@H](C(=O)NCC(=O)N[C@@H](CO)C(=O)N[C@@H](CC(N)=O)C(=O)N[C@H](C(=O)N1C[C@H](O)C[C@H]1C(N)=O)[C@@H](C)O)C(C)C)[C@@H](C)O [PD100] (H-RCNTATCATQRLADFLRHK([γGlu-C18 diacid])SNNLGPILPPTNVGSNT[Hyp]-NH2; disulfide 2-7)

Continued, molecule first:

SMILES	EC50 [nM]
CC[C@H](C)[C@H](NC(=O)[C@@H]1CCCN1C(=O)CNC(=O)[C@H](CC(C)C)NC(=O)[C@H](CC(N)=O)NC(=O)[C@H](CC(N)=O)NC(=O)[C@H](CCCCNC(=O)COCCOCCNC(=O)COCCOCCNC(=O)CC[C@H](NC(=O)CCCCCCCCCCCCCCCCCCC(=O)O)C(=O)O)NC(=O)[C@H](CO)NC(=O)[C@H](Cc1c[nH]cn1)NC(=O)[C@H](CCCNC(=N)N)NC(=O)[C@H](CC(C)C)NC(=O)[C@H](Cc1ccccc1)NC(=O)[C@H](CC(=O)O)NC(=O)[C@H](C)NC(=O)[C@H](CC(C)C)NC(=O)[C@H](CCCNC(=N)N)NC(=O)[C@H](CCC(N)=O)NC(=O)[C@@H](NC(=O)[C@H](C)NC(=O)[C@@H]1CSSC[C@H](NC(=O)[C@@H](N)CCCNC(=N)N)C(=O)N[C@@H](CC(N)=O)C(=O)N[C@@H]([C@@H](C)O)C(=O)N[C@@H](C)C(=O)N[C@@H]([C@@H](C)O)C(=O)N1)[C@@H](C)O)C(=O)N[C@@H](CC(C)C)C(=O)N1CCC[C@H]1C(=O)N1CCC[C@H]1C(=O)N[C@H](C(=O)N[C@@H](CC(N)=O)C(=O)N[C@H](C(=O)NCC(=O)N[C@@H](CO)C(=O)N[C@@H](CC(N)=O)C(=O)N[C@H](C(=O)N1C[C@H](O)C[C@H]1C(N)=O)[C@@H](C)O)C(C)C)[C@@H](C)O [PD095] (H-RCNTATCATQRLADFLRHSK([AEEA-AEEA-γGlu-C20 diacid])NNLGPILPPTNVGSNT[Hyp]-NH2; disulfide 2-7)	0.047
CC[C@H](C)[C@H](NC(=O)[C@@H]1CCCN1C(=O)CNC(=O)[C@H](CC(C)C)NC(=O)[C@H](CC(N)=O)NC(=O)[C@H](CC(N)=O)NC(=O)[C@H](CCCCNC(=O)CC[C@H](NC(=O)CCCCCCCCCCCCCCCCC(=O)O)C(=O)O)NC(=O)[C@H](CO)NC(=O)[C@H](Cc1c[nH]cn1)NC(=O)[C@H](CCCNC(=N)N)NC(=O)[C@H](CC(C)C)NC(=O)[C@H](Cc1ccccc1)NC(=O)[C@H](CC(=O)O)NC(=O)[C@H](C)NC(=O)[C@H](CC(C)C)NC(=O)[C@H](CCCNC(=N)N)NC(=O)[C@H](CCC(N)=O)NC(=O)[C@@H](NC(=O)[C@H](C)NC(=O)[C@@H]1CSSC[C@H](NC(=O)[C@@H](N)CCCNC(=N)N)C(=O)N[C@@H](CC(N)=O)C(=O)N[C@@H]([C@@H](C)O)C(=O)N[C@@H](C)C(=O)N[C@@H]([C@@H](C)O)C(=O)N1)[C@@H](C)O)C(=O)N[C@@H](CC(C)C)C(=O)N1CCC[C@H]1C(=O)N1CCC[C@H]1C(=O)N[C@H](C(=O)N[C@@H](CC(N)=O)C(=O)N[C@H](C(=O)NCC(=O)N[C@@H](CO)C(=O)N[C@@H](CC(N)=O)C(=O)N[C@H](C(=O)N1C[C@H](O)C[C@H]1C(N)=O)[C@@H](C)O)C(C)C)[C@@H](C)O [PD096] (H-RCNTATCATQRLADFLRHSK([γGlu-C18 diacid])NNLGPILPPTNVGSNT[Hyp]-NH2; disulfide 2-7)	0.042
CC[C@H](C)[C@H](NC(=O)[C@@H]1CCCN1C(=O)CNC(=O)[C@H](CC(C)C)NC(=O)[C@H](CC(N)=O)NC(=O)[C@H](CC(N)=O)NC(=O)[C@H](CCCCNC(=O)COCCOCCNC(=O)COCCOCCNC(=O)CC[C@H](NC(=O)CCCCCCCCCCCCCCCCC(=O)O)C(=O)O)NC(=O)[C@H](CO)NC(=O)[C@H](Cc1c[nH]cn1)NC(=O)[C@H](CCCNC(=N)N)NC(=O)[C@H](CC(C)C)NC(=O)[C@H](Cc1ccccc1)NC(=O)[C@H](CC(=O)O)NC(=O)[C@H](C)NC(=O)[C@H](CC(C)C)NC(=O)[C@H](CCCNC(=N)N)NC(=O)[C@H](CCC(N)=O)NC(=O)[C@@H](NC(=O)[C@H](C)NC(=O)[C@@H]1CSSC[C@H](NC(=O)[C@@H](N)CCCNC(=N)N)C(=O)N[C@@H](CC(N)=O)C(=O)N[C@@H]([C@@H](C)O)C(=O)N[C@@H](C)C(=O)N[C@@H]([C@@H](C)O)C(=O)N1)[C@@H](C)O)C(=O)N[C@@H](CC(C)C)C(=O)N1CCC[C@H]1C(=O)N1CCC[C@H]1C(=O)N[C@H](C(=O)N[C@@H](CC(N)=O)C(=O)N[C@H](C(=O)NCC(=O)N[C@@H](CO)C(=O)N[C@@H](CC(N)=O)C(=O)N[C@H](C(=O)N1C[C@H](O)C[C@H]1C(N)=O)[C@@H](C)O)C(C)C)[C@@H](C)O [PD097] (H-RCNTATCATQRLADFLRHSK([AEEA-AEEA-γGlu-C18 diacid])NNLGPILPPTNVGSNT[Hyp]-NH2; disulfide 2-7)	0.014
CC[C@H](C)[C@H](NC(=O)[C@@H]1CCCN1C(=O)CNC(=O)[C@H](CC(C)C)NC(=O)[C@H](CC(N)=O)NC(=O)[C@H](CC(N)=O)NC(=O)[C@H](CO)NC(=O)[C@H](CCCCNC(=O)COCCOCCNC(=O)COCCOCCNC(=O)CC[C@H](NC(=O)CCCCCCCCCCCCCCCCCCC(=O)O)C(=O)O)NC(=O)[C@H](Cc1c[nH]cn1)NC(=O)[C@H](CCCNC(=N)N)NC(=O)[C@H](CC(C)C)NC(=O)[C@H](Cc1ccccc1)NC(=O)[C@H](CC(=O)O)NC(=O)[C@H](C)NC(=O)[C@H](CC(C)C)NC(=O)[C@H](CCCNC(=N)N)NC(=O)[C@H](CCC(N)=O)NC(=O)[C@@H](NC(=O)[C@H](C)NC(=O)[C@@H]1CSSC[C@H](NC(=O)[C@@H](N)CCCNC(=N)N)C(=O)N[C@@H](CC(N)=O)C(=O)N[C@@H]([C@@H](C)O)C(=O)N[C@@H](C)C(=O)N[C@@H]([C@@H](C)O)C(=O)N1)[C@@H](C)O)C(=O)N[C@@H](CC(C)C)C(=O)N1CCC[C@H]1C(=O)N1CCC[C@H]1C(=O)N[C@H](C(=O)N[C@@H](CC(N)=O)C(=O)N[C@H](C(=O)NCC(=O)N[C@@H](CO)C(=O)N[C@@H](CC(N)=O)C(=O)N[C@H](C(=O)N1C[C@H](O)C[C@H]1C(N)=O)[C@@H](C)O)C(C)C)[C@@H](C)O [PD099] (H-RCNTATCATQRLADFLRHK([AEEA-AEEA-γGlu-C20 diacid])SNNLGPILPPTNVGSNT[Hyp]-NH2; disulfide 2-7)	0.033
